Results as given in PMC7118210 (Frontiers in Pharmacology, 2020).
Like-named read-outs stand apart in the source and are kept apart here.

How the values were obtained:
[1] = Multiple-dose pharmacokinetics in dogs; format: in vivo, Beagle dogs
Procedure: (§1) The optimal volume and activity in unit volume of enzyme solution [0.2 M acetic acid/water solution: 0.2 M ammonium acetate/water solution, 15:35 (v/v)] were determined through a pretest of the enzyme (rat plasma, 10 μl, 10 U μl^-1; dog plasma, 10 μl, 10 U μl^-1; human plasma, 20 μl, 20 U μl^-1; human urine, 10 μl, 10 U μl^-1). After enzyme incubation, 10 μl of IS solution was added to the plasma and urine samples (2 μg ml^-1 quercetin 3-β-D-glucoside for rat and dog plasma; 583 ng ml^-1 naringin-D4 and 160 ng ml^-1 naringenin-D4 for human plasma; and 9,710 ng ml^-1 naringin-D4 and 6,000 ng ml^-1 naringenin-D4 for human urine). To each fecal sample, 9-fold methanol-normal saline (2:1, v/v) was added, mixed (18,000 rpm, 15 min) by vortexing and centrifuged (10 min, 9,000 rpm, 4°C). Next, 10 μl IS solution (971 ng ml^-1 naringin-D4 and 600 ng ml^-1 naringenin-D4) was added to the supernatants of feces (200 μl) without enzyme incubation. […] The solid material was dissolved with acetonitrile-water (1:1, v/v) and injected into the ultra high-performance liquid chromatography coupled with triple quadrupole mass spectrometry (UHPLC/MS/MS) system as described below. The analysis of nonclinical and clinical samples was performed with a UHPLC/MS/MS system that consisted of a Shimadzu Nexera X2 ultra high-performance liquid chromatography (UHPLC) (Shimadzu Corp., Kyoto, Japan) coupled with an AB Sciex API4000 triple-quadrupole mass spectrometry (MS/MS) system (AB Sciex, Foster City, CA, USA) equipped with an electrospray ionization source and controlled by Analyst (v. 1.6.2) software. […] The injection volume was 10 μl with the flow rate of 0.3 ml min^-1 for plasma, and 0.4 ml min^-1 for urine and feces. The compounds were detected by multiple reaction monitoring in the negative ion electrospray mode. The electrospray source conditions were as follows: ion source gas1 30 psi, ion source gas2 60 psi, curtain gas 20 psi, collisionally activated dissociation (CAD) gas 8 psi, temperature 500°C, and ion spray voltage −4,500 V. Zero air was used for ion source gas1 and ion source gas2 and nitrogen for curtain gas and CAD gas. […] All pharmacokinetic and excretion parameters were expressed as mean ± standard deviation (SD). All mean and SD values were reported to three significant figures. The pharmacokinetic parameters were calculated using the Phoenix WinNonlin software (Version 6.4, Pharsight Corp., Cary, NC, USA) and compared using the Student's t-test (p < 0.05) in SPSS 18.0 (SPSS Inc., Chicago, IL, USA). […] For the multiple-dose studies, pharmacokinetic parameters included the mean plasma level at steady state, Tmax, t1/2, the percent fluctuation, and the accumulation index (Table 3). […] In addition, we compared the pharmacokinetic parameters obtained from males and females (Tables 4–6).

[2] = cited from earlier work
[3] = Multiple-dose pharmacokinetics in rats; format: in vivo, Sprague Dawley rats
Procedure: as §1

[4] = naringin 12.4 mg kg^-1 multiple dose, dog, female
[5] = naringin 12.4 mg kg^-1 multiple dose, dog, male
[6] = naringin 12.4 mg kg^-1 p.o. three times a day, multiple dose, dog
[7] = naringin 42 mg kg^-1 multiple dose, rat, female
[8] = naringin 42 mg kg^-1 multiple dose, rat, male
[9] = naringin 42 mg kg^-1 p.o. three times a day, multiple dose, rat

SMILES	accumulation in multiple-dose study ([1]; dog, in vivo)	CavSS [1, 4] [ng/mL]	CavSS [1, 5] [ng/mL]	CavSS [1, 6] [ng/mL]	time within which excreted ([2]; rats, ref Liu M. et al., 2012) [h]	CavSS [3, 7] [ng/mL]	CavSS [3, 8] [ng/mL]	CavSS [3, 9] [ng/mL]	accumulation in multiple-dose study ([3]; rat, in vivo)	accumulation in multiple-dose study ([1]; dogs)	Fluctuation [1, 4] [%]	Fluctuation [1, 5] [%]	Fluctuation ([1]; naringin 12.4 mg kg^-1 p.o. three times a day, multiple dose, dog, (CmaxSS−CminSS)/CavSS×100%) [%]	cumulative excretion percentage ([2]; aged rats, in the forms of naringin and naringenin, ref Zeng et al., 2019) [%]	cumulative excretion percentage ([2]; aged rats, in the forms of naringin, naringenin, and 4-hydroxyphenylpropionic acid, ref Zeng et al., 2019) [%]	cumulative excretion percentage ([2]; rats, in the forms of naringin, naringenin, and 4-hydroxyphenylpropionic acid, ref Liu M. et al., 2012) [%]	Fluctuation [3, 7] [%]	Fluctuation [3, 8]	Fluctuation ([3]; naringin 42 mg kg^-1 p.o. three times a day, multiple dose, rat, (CmaxSS−CminSS)/CavSS×100%) [%]	accumulation in multiple-dose study ([3]; rats)
O=C1C[C@@H](c2ccc(O)cc2)Oc2cc(O)cc(O)c21 [naringenin, Naringenin]	no significant accumulation	50.7 ± 16.1	49 ± 10.4	49.8 ± 12.2	≤ 24	600 ± 517	178 ± 90.8	389 ± 415	no significant accumulation											
C[C@@H]1O[C@@H](O[C@H]2[C@H](Oc3cc(O)c4c(c3)O[C@H](c3ccc(O)cc3)CC4=O)O[C@H](CO)[C@@H](O)[C@@H]2O)[C@H](O)[C@H](O)[C@H]1O [naringin, Naringin]		22.1 ± 3.41	15.1 ± 2.53	18.6 ± 4.68	≤ 24	17.4 ± 19.9	6.03 ± 9.48	11.7 ± 15.9		no significant accumulation	370 ± 119	242 ± 8.10	306 ± 103	19	98	21	612 ± 233	844 ± 1,030%	728 ± 711	no significant accumulation
